These results are taken from PMC11290850, “Screening of synthetic 1,2,3-triazolic compounds inspired by SRPIN340 as anti-Trypanosoma cruzi agents” (Revista da Sociedade Brasileira de Medicina Tropical, 2024).

Molecules are shown by their SMILES. “Also recorded” adds a separate entry of the source. Like-named read-outs stand apart in the source and are kept apart here.

In data set [1] the test system is intracellular amastigotes of Trypanosoma cruzi Tulahuen transfected with β-galactosidase strain. In words: In vitro trypanocidal activity, β-galactosidase-expressing T. cruzi in L929 fibroblasts. Format: cell-based. The note with it: for IC50: intracellular amastigotes, Tulahuen β-galactosidase strain, 96 hours of exposition; for Selectivity index (SI): CC50 (L929)/IC50 (T. cruzi Tulahuen). Here is the method:
The in vitro assays were conducted at the Centro de Pesquisas René Rachou-Fiocruz (FIOCRUZ-MINAS), Minas Gerais, Brazil. To evaluate trypanocidal activity, initial in vitro screening was performed following the protocols described by Buckner et al.[43] and Romanha et al.. In this assay, Tulahuen T. cruzi strain expressing β-galactosidase trypomastigotes and intracellular amastigotes were cultured in mouse L929 fibroblasts in RPMI1640 medium without phenol red and containing 10% fetal bovine serum. Tissue culture microplates with L929 fibroblasts were incubated overnight at 37°C with 5% CO2. Subsequently, the Tulahuen β-galactosidase-expressing trypomastigotes were added at a ratio of 1:10 cells to trypomastigotes for 2 hours. The medium was then replaced with fresh medium, and the cultures were incubated for 48 hours. Following this step, the medium was replaced with a solution of the test compound, diluted in dimethyl sulfoxide (DMSO, less than 1%), in RPMI1640 medium with concentrations ranging from 5 to 20 µM. […] Benznidazole was utilized as a positive control at 1 µg/mL (3.84 µM).
(§1) Because the amount of beta-galactosidase is directly proportional to the number of parasites, trypanocidal activity was assessed by measuring the decrease in beta-galactosidase activity in the treated cultures compared to the infected control culture without treatment. To determine the cytotoxicity of the compounds on L929 cells, absorbance was measured at two wavelengths (570 and 600 nm) after 4-6 hours of incubation with alamarBlue® reagent (Invitrogen Corporation, USA). Cytotoxicity was evaluated by analyzing the difference in reagent reduction between treated cells (TC) and untreated cells (UT) using an equation provided by the manufacturer of alamarBlue®: […]
(§2) Half-maximum inhibitory concentration (IC50) and half-maximum cytotoxicity concentration (CC50) values were determined through linear interpolation[45] using Excel software (Microsoft Corporation, USA). The assay was conducted in triplicate, and the results are expressed as the percentage inhibition of parasite growth Cytotoxicity assay.

Data set [2] is described as follows: Cytotoxicity on L929 cells (alamarBlue). To be noted: mouse, L929 fibroblasts (infected with T. cruzi), 96-hour exposure. The data set is classed as cell-based. Here is the method:
as §1, §2
In vitro cytotoxicity assessments of the compounds were performed using AlamarBlue®. The cells and experimental conditions mirrored those used for the trypanocidal assay. After a 96-hour exposure of mouse L929 fibroblasts infected with T. cruzi to the test compounds, alamarBlue® was added, and absorbance was measured after an additional 4-6-hour incubation. IC50 values were determined by linear interpolation, and the selectivity index (SI) was calculated as the ratio of CC50 (the concentration causing 50% cytotoxicity) to IC50 (the concentration causing 50% parasitic inhibition). Benznidazole served as the positive control for comparative analysis.
In general terms: Alamar Blue is a resazurin reagent that responds to reducing activity.

For the next data set, the system named is U87MG lineage. Also on record: method as in earlier work. The note with it: human glioblastoma cells; cited from earlier work.
For data set [3], the system named is Trypanosoma cruzi Y strain. In words: In vivo rapid test, parasitemia in Swiss mice infected with T. cruzi Y strain. The note with it: for Reduction in parasitemia: oral gavage once daily for five days, doses of 10, 50, and 250 mg/kg/day; for Overall performance in vivo compared with BZ / Parasitemia compared to infected untreated animals / Parasitemia compared to the untreated group: oral; for Overall performance in vivo compared with BZ: BZ at 100 mg/kg; for Parasitemia compared to infected untreated animals: doses of 50 and 250 mg/kg/day; for Parasitemia compared to the untreated group: smallest dose 10 mg/kg/day. How it is done: The in vivo assays were conducted at the Laboratório de Pesquisas Clínicas, Escola de Farmácia, Universidade Federal de Ouro Preto (UFOP), Minas Gerais State, Brazil, utilizing only compounds with a selectivity index (SI) exceeding 50 (Table 1).
Swiss female mice aged 28-30 days were obtained from the Centro de Ciência Animal of the Universidade Federal de Ouro Preto (UFOP), Minas Gerais State, Brazil. The animals were housed in a temperature range of 20-24 °C with a 12-hour light-dark cycle, and had ad libitum access to filtered water and commercial feed. The experimental procedures were approved by the institutional Comitê de Ética em Experimentação Animal (CEUA-UFOP), Minas Gerais State, Brazil, Protocol 2157041219.
The mice were intraperitoneally infected with 1x10^4 blood trypomastigotes of the T. cruzi Y strain obtained from mice maintained by successive blood passages (CEUA 2015/50). Infection was confirmed by fresh blood examination (FBE)[46] on the 4th day after infection, and treatment commenced. For the in vivo test, the highest concentration attainable when blending the test compounds in various orally safe vehicles was selected. Canola oil yielded the most favorable results. The compounds were diluted with canola oil to the highest possible concentration of 25 mg/mL. Subsequently, two different dilutions (5x) were prepared, resulting in doses of 250, 50, and 10 mg/kg/day. These doses were administered via oral gavage once daily (group n = 8). In parallel, a control group of mice remained infected and untreated (INT), while another group received treatment with the reference drug (BZ) at a dose of 100 mg/kg. The BZ tablets were crushed with 0.5% gum arabic, and suspended in distilled water.
To evaluate the effectiveness of the compounds in reducing parasitemia, FBE was conducted daily for five consecutive days, during which parasitemia was counted.

Setting [4] is: Trypanosoma cruzi, TULAHUEN, L929, 96 h, read-out: IC50.
[5] abbreviates: Trypanosoma cruzi, TULAHUEN, L929, 96 h, value in brackets, read-out: IC50.
Setting [6] is: top concentration limited by solubility (20 to 160 µg/mL).

Regarding `O=C(Cn1ccnc1[N+](=O)[O-])NCc1ccccc1` [Benznidazole, reference compound], the IC50 (commonly the concentration at which inhibition is half-maximal) turned out to be 1 µg/mL in data set [1] (setting [4]) and 3.81 µM in data set [1] (setting [5]). Also, the CC50 – broadly, the concentration that lowers cell viability or growth by half – at 96 h in data set [2] (setting [6]) turned out to be 625 µg/mL.
Turning to `O=C1c2ccccc2C(=O)N1Cc1cn(-c2cc(C(F)(F)F)ccc2N2CCOCC2)nn1` [Compound 6A], the IC50 entry in data set [1] is recorded as “Not active”. Also, in the data set on U87MG lineage, the “Cytotoxicity / cellular growth of U87MG lineage” value is “no perceived cytotoxicity”.
Take `FC(F)(F)c1ccc(N2CCOCC2)c(-n2cc(COCc3ccc(Cl)cc3)nn2)c1` [Compound 6B]: the “Selectivity index (SI)” value in data set [1] turned out to be 15.7. In addition, the IC50 in data set [1] (setting [5]) worked out at 5 µM. Moreover, the CC50 at 96 h in data set [2] (setting [6]) was determined as 36.1 µg/mL; in data set [2] (value in brackets), 79 µM.
Turning to `FC(F)(F)c1ccc(N2CCOCC2)c(-n2cc(COCc3ccc(Br)cc3)nn2)c1` [Compound 6C], the “Selectivity index (SI)” value in data set [1] is on record as 23.5. Also, the IC50 in data set [1] (setting [4]) is under 5 µg/mL; in data set [1] (setting [5]), 6.8 µM. In addition, the CC50 at 96 h in data set [2] (setting [6]) came to 80 µg/mL; in data set [2] (value in brackets), 161 µM.
For `COc1ccc(COCc2cn(-c3cc(C(F)(F)F)ccc3N3CCOCC3)nn2)cc1` [Compound 6D], in that order: over 3.0, 6.6 µg/mL, 15.7 µM, over 20 µg/mL and over 47.6 µM.
Take `FC(F)(F)c1ccc(N2CCOCC2)c(-n2cc(COCc3ccccc3)nn2)c1` [Compound 6E]: the “Selectivity index (SI)” value in data set [1] is listed as 125.2. For the same molecule, in data set [1] (setting [4]), the IC50 was 0.5 µg/mL. Further, the IC50 in data set [1] (setting [5]) came to 1.3 µM. This molecule also came in with a CC50 at 96 h in data set [2] (setting [6]) of 62.6 µg/mL. Further, the CC50 at 96 h in data set [2] (value in brackets) is 160 µM. In data set [3], the Reduction in parasitemia entry is “reduction in parasitemia; also recorded: effectively reduced”, the “Overall performance in vivo compared with BZ” value is listed as “inferior overall performance”, the “Parasitemia compared to infected untreated animals” value was “significantly reduced” and the “Parasitemia compared to the untreated group” value is “did not markedly reduce parasitemia”.
With `CCN(CC)c1ccc(C(F)(F)F)cc1-n1cc(COCc2ccc(Cl)cc2)nn1` [Compound 6F], in data set [1], the IC50 result is recorded as “Not active”.
Turning to `FC(F)(F)c1ccc(N2CCCCC2)c(-n2cc(COCc3ccc(Cl)cc3)nn2)c1` [Compound 6G], the IC50 in data set [1] (setting [4]) was under 5 µg/mL; in data set [1] (setting [5]), 10.4 µM. The CC50 at 96 h was over 160 µg/mL in data set [2] (setting [6]) and over 355 µM in data set [2] (value in brackets).
As for `FC(F)(F)c1ccc(N2CCCCC2)c(-n2cc(COCc3ccc(Br)cc3)nn2)c1` [Compound 6H], in data set [1], the “Selectivity index (SI)” value is over 69. Further, the IC50 in data set [1] (setting [5]) is 4.6 µM. Also, the CC50 at 96 h in data set [2] (setting [6]) is over 160 µg/mL. The same molecule displayed a CC50 at 96 h in data set [2] (value in brackets) of over 323 µM. For the same molecule, in data set [3], the Reduction in parasitemia result is on record as “reduction in parasitemia; also recorded: effectively reduced”, the “Overall performance in vivo compared with BZ” value is listed as “inferior overall performance”, the “Parasitemia compared to infected untreated animals” value is given as “significantly reduced” and the “Parasitemia compared to the untreated group” value is given as “did not markedly reduce parasitemia”.
Take `O=C1c2ccccc2C(=O)N1Cc1cn(-c2cc(C(F)(F)F)ccc2N2CCCCC2)nn1` [Compound 6I]: the IC50 result in data set [1] was “Not active”.
On to `FC(F)(F)c1ccc(N2CCCCC2)c(-n2cc(COCc3ccccc3)nn2)c1` [Compound 6J], for which the IC50 is 6.5 µg/mL in data set [1] (setting [4]) and 15.6 µM in data set [1] (setting [5]). In addition, the CC50 at 96 h is over 20 µg/mL in data set [2] (setting [6]) and over 48 µM in data set [2] (value in brackets).
On the same counts, the results for `COc1ccc(COCc2cn(-c3cc(C(F)(F)F)ccc3N3CCCCC3)nn2)cc1` [Compound 6K] are 10.5 µg/mL, 23.5 µM, over 20 µg/mL and over 45 µM.
